The text below walks through data of patent US12583855B2, “RET selective inhibitor, preparation method therefor and use thereof” (SHOUYAO HOLDINGS (BEIJING) CO., LTD., priority 2019, dated 2026).

Numbering of substitutions follows the chain as printed.

The nature of data set [1]: Pharmacokinetic data of compounds in male SD rats. Type of data set: in vivo. The note with it: rat, po, intragastric, 5 mg/kg, suspension MC 0.5%, plasma. The procedure: 6. Pharmacokinetic Data of Compounds
Male SD rats (Beijing Vital River Laboratory Animal Technology Co., Ltd) were divided into groups. 3 in each group, received intragastric administration with the suspension of the test sample (5 mg/kg, suspensions MC 0.5%), respectively. Animals were fasted overnight prior to the experiment from 10 h before dosing to 4 h after dosing. Blood was collected 0.25, 0.5, 1, 2, 4, 6, 8, and 24 h after administration, respectively. After isoflurane anesthesia using a small animal anesthesia machine, 0.3 mL of whole blood samples was taken through the fundus venous plexus, placed in a heparin anticoagulant tube, and were centrifuged at 4° C. 4000 rpm for 5 min plasma was transferred to the centrifuge tube, and stored at −80° C. until analysis. Samples in the plasma were extracted using protein precipitation and the extracts were analyzed by LC/MS.

Data set [2] deals with VEGFR2 (Homo sapiens, UniProt P35968). Briefly: In vitro enzymatic activity assay on VEGFR2 (HTRF). Type of data set: biochemical. Conditions: GST-VEGFR2 0.1 nM, ATP 2.5 μM. As to the method: 3. n Vitro Enzymatic Activity Assay for Compounds on VEGFR2
Sequence of VEGFR2 (P35968 20-1356): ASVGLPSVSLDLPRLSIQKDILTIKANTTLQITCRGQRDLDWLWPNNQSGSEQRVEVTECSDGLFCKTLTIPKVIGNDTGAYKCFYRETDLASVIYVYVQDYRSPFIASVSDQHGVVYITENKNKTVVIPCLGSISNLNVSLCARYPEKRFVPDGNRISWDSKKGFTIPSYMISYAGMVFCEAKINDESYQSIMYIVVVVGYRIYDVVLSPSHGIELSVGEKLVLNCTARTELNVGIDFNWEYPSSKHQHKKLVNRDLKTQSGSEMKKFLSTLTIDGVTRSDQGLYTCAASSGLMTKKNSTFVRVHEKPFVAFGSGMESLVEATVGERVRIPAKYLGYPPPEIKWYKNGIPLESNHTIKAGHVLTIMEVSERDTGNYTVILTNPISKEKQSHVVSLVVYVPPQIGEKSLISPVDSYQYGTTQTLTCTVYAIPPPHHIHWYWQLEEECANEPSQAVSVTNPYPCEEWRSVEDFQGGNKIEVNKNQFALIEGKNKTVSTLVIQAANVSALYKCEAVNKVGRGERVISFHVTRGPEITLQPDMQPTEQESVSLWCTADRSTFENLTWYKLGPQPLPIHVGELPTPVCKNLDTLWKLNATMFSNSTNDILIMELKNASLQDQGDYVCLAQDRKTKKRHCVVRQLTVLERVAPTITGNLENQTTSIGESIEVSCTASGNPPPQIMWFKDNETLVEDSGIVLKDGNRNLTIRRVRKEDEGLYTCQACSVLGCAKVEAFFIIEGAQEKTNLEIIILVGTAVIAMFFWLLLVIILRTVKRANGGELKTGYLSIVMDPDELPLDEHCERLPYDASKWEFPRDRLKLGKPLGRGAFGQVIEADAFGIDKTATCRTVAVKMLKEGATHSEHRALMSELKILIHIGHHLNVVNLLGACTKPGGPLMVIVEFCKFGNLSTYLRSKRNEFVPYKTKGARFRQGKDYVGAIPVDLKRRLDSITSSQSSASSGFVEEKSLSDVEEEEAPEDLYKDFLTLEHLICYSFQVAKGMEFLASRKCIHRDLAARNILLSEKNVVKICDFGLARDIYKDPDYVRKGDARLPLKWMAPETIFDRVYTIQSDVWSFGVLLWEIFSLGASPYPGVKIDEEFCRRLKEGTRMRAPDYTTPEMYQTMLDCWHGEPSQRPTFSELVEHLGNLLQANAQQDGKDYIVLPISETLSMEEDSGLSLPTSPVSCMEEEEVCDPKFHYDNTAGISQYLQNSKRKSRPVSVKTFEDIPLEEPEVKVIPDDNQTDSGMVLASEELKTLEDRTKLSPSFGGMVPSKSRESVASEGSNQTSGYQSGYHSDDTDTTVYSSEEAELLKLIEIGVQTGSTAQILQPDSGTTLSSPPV
The compounds were diluted 5-fold with 100% DMSO starting from 1 mM (7 concentrations in total), and 2 μL of each concentration was added to 48 μL of reaction buffer (50 mM HEPES pH 7.5, 0.1 mM Na3VO4, 5 mM MgCl2, 1 mM MnCl2, 1 mM DTT, 0.001% Tween 20, and 100 μg/ml BSA) for dilution and mixing. 2.5 μL of compounds and 5 μL of GST-VEGFR2 (final concentration of 0.1 nM) were added to a 384-well plate (OptiPlate-384, purchased from PerkinElmer), the mixture was mixed by centrifugation, and 2.5 μL of ATP (final concentration of 2.5 μM) and TK Peptide Substrate mixture (final concentration of 1 μM, purchased from Cisbio) were added to start the reaction, with a total reaction volume of 10 μL. The 384-well plate was placed in an incubator and reacted at 23° C. for 1.5 h before the reaction was stopped by the addition of 5 μL of TK Antibody (purchased from Cisbio) and 5 μL of Streptavidin-XL665 (purchased from Cisbio). After further incubation in the incubator for 1 h. fluorescence values (excitation at 320 nm, detecting emitted light at 665 nm and 620 nm, and a ratio of the two as an enzyme activity signal) were read on Envision (purchased from PerkinElmer). The enzymatic activity signal of VEGFR2 was measured at 7 concentrations for each compound and the data were calculated using GraphPad Prism software to obtain the IC50 value for the compound.

Data set [3] deals with T1, RET^WT (Homo sapiens, UniProt P07949).
T1 construct: GST-RET^WT (658-1114 aa, final concentration of 0.5 nM)
T1 sequence (P07949 658-1114): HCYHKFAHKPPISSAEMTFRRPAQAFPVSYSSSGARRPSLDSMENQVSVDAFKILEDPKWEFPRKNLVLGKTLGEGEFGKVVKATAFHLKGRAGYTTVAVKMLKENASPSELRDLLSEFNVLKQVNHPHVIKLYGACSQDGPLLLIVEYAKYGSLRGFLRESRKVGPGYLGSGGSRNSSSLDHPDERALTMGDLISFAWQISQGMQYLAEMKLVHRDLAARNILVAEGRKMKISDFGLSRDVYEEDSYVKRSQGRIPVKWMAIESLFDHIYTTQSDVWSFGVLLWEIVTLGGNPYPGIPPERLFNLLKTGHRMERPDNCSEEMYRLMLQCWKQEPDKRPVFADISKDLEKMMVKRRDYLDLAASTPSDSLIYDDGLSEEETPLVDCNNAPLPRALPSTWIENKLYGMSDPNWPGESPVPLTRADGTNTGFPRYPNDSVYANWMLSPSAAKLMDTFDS
Briefly: In vitro enzymatic activity assay on RET^WT (HTRF). It is filed as biochemical. The note with it: GST-RET^WT (658-1114 aa) 0.5 nM, ATP 25 μM. As to the method: 1. In Vitro Enzymatic Activity Assay for Compounds on RET^WT
The compounds were diluted 5-fold with 100% DMSO starting from 0.2 mM (7 concentrations in total), and 2 μL of each concentration was added to 48 μL of reaction buffer (50 mM HEPES pH7.5, 0.1 mM Na3VO4, 5 mM MgCl2. 1 mM DTT, 0.001% Tween 20, and 100 μg/ml BSA) for dilution and mixing.
The 384-well plate was placed in an incubator and reacted at 23° C. for 2 h before the reaction was stopped by the addition of 5 μL of TK Antibody (purchased from Cisbio) and 5 μL of Streptavidin-XL665 (purchased from Cisbio). […] The enzymatic activity signal of RET^WT was measured at 7 concentrations for each compound and the data were calculated using GraphPad Prism software to obtain the IC50 value for the compound.
A general note: In TR-FRET formats the signal depends on donor and acceptor labels being close together.

For data set [4], the system named is TT cells. Briefly: TT cell proliferation activity (Cell-Titer Glo). It is filed as cell-based. Conditions: TT human thyroid carcinoma cells, 120 h. As to the method:
4. Determination of TT Cell Proliferation Activity of Compounds
TT cells, a human thyroid carcinoma cell line, were cultured in Ham's F-12K medium supplemented with 15% fetal bovine serum (FBS, purchased from Biological Industries, BI) and 1% penicillin/streptomycin double antibody (P/S, purchased from Life Technology) under conditions of 37° C. and 5% CO2. TT cells were plated in a 96-well plate (#3917 purchased from Corning) at a concentration of 5000 cells/195 μL/well the day before compound was detected. The compounds were diluted 3-fold with 100% DMSO starting from 10 mM (10 concentrations in total) after 24 h, and 2 μL of each concentration was diluted in 48 μL of Ham's F-12K medium. 5 μL of each diluted compound was added to the plated Cell suspension, the compound and cells were co-incubated in a cell incubator for 120 h (5 days), after the medium was aspirated. 25 μL of Cell-Titer Glo (G7570, purchased from Promega) reagent was added and re-incubated for 5-10 min. Fluorescence value was then read on Envision and the data were calculated using GraphPad Prism software to obtain IC50 values for inhibition of cell proliferation by the compounds.

The target in data set [5] is T2, RET^V804M (Homo sapiens, UniProt P07949, V804M).
T2 construct: GST-RET^V804M (658-1114 aa, final concentration of 0.02 nM)
T2 sequence (P07949 658-1114 V804M): T1 sequence (P07949 658-1114) with V147M
Briefly: In vitro enzymatic activity assay on RET^V804M (HTRF). Type of data set: biochemical. Conditions: GST-RET^V804M (658-1114 aa) 0.02 nM, ATP 1.5 μM.

As usually defined, the AUC(0-inf) is the area under the concentration-time curve extrapolated to infinity. Low values mean less exposure, high ones more exposure. As a reminder, the Cmax is the peak of the concentration-time curve. In general, Tmax refers to the time at which the peak concentration occurs. The half-life is the time in which the quantity being followed falls by half. A lower half-life goes with fast loss. Broadly, the IC50 is the concentration that inhibits the measured activity by half. Lower therefore signals greater potency in that assay. Regarding `CS(=O)(=O)c1ccc(CN2C3CC2CN(c2ccc(-c4cc(-c5cnn(C(F)(F)F)c5)cn5ncc(C#N)c45)cn2)C3)cc1` [Example 84, 4-(6-(6-(4-(methylsulfonyl)benzyl)-3,64-diazabicyclo[3.1.1]heptan-3-yl)pyridin-3-yl)-6-(1-(trifluoromethyl)-1Hpyrazol-4-yl) pyrazolo[1,5-a] pyridine-3-carbonitrile], in data set [1], the total exposure AUC(0-inf) was found to be 27300 ng·h/mL, the Cmax came to 3090 ng/mL, the Tmax was 2 h and the half-life was 2.78 h. In data set [2], this compound returned an IC50 of 13.3 nM. The compound also registered an IC50 in data set [3] of 0.309 nM.
In the case of `COc1ccc(CN2C3CC2CN(c2cnc(-c4cc(-c5cnn(C)c5)cn5ncc(C#N)c45)cn2)C3)cn1` [Example 3, 4-(5-(6-((6-methoxypyridin-3-yl)methyl)-3,6-diazabicyclo[3.1.1]heptan-3-yl)pyrazin-2-yl)-6-(1-methyl-1Hpyrazol-4-yl) pyrazolo[1,5-a]pyridine-3-carbonitride], the IC50 in data set [4] came out at 1.01 nM; in data set [2], 3.01 nM.
For `COc1ccc(CN2C3CC2CN(c2ccc(-c4cc(N5CC(F)(F)C5)cn5ncc(C#N)c45)cn2)C3)nc1` [Example 46, 6-(3,3-difluoroazetidin-1-yl)-4-(6-(6-((5-methoxypyridin-2-yl)methyl)-3,6-diazabicyclo [3.1.1]heptan-3-yl)pyridin-3-yl) pyrazolo[1,5-a]pyridine-3-carbonitrile], the IC50 in data set [4] came out at 37.6 nM; in data set [2], 17.2 nM; in data set [3], 0.159 nM.
Consider `COC/C=C/C(=O)N1C2CC1CN(c1ccc(-c3cc(-c4cnn(C)c4)cn4ncc(C#N)c34)cn1)C2` [Example 61, (E)-4-(6-(6-(4-methoxybut-2-enoyl)-3,6-diazabicyclo[3.1.1]heptan-3-yl)pyridin-3-yl)-6-(1-methyl-1Hpyrazol-4-yl)pyrazolo[1,5-a]pyridine-3-carbonitrile], for which the figures for the IC50 in data set [5], in data set [2] and in data set [3] were 6.37 nM, 18.2 nM and 0.779 nM, respectively.
On the same counts, the results for `CS(=O)(=O)c1ccccc1CN1C2CC1CN(c1ccc(-c3cc(N4CC(F)(F)C4)cn4ncc(C#N)c34)cn1)C2` [Example 67, 6-(3,3-difluoroazetidin-1-yl)-4-(6-(6-(2-(methylsulfonyl)benzyl)-3,6-diazabicyclo [3.1.1]heptan-3-yl)pyridin-3-yl)pyrazolo[1,5-a]pyridine-3-carbonitrile] are 3.97 nM, 80.5 nM and 0.465 nM.
Regarding `Cn1cc(-c2cc(-c3cnc(N4CCN(Cc5ccc(S(C)(=O)=O)cc5)CC4)cn3)c3c(C#N)cnn3c2)cn1` [Example 42, 6-(1-methyl-1Hpyrazol-4-yl)-4-(5-(4-(4-(methylsulfonyl)benzyl)piperazin-1-yl)pyrazin-2-yl)pyrazolo[1,5-a]pyridine-3-carbonitrile], the IC50 in data set [4] turned out to be 47.9 nM; in data set [2] it was 42.5 nM; in data set [3], 0.642 nM.
In the case of `CSCCN1CCN(c2ccc(-c3cc(-c4cnn(C)c4)cn4ncc(C#N)c34)cn2)CC1` [Example 21, 6-(1-methyl-1Hpyrazol-4-yl)-4-(6-(4-(2-(methylthio)ethyl)piperazin-1-yl)pyridin-3-yl)pyrazolo[1,5-a]pyridine-3-carbonitrile], the IC50 in data set [4] was 27.9 nM; in data set [2], 11.9 nM.
For the compound `CS(=O)(=O)c1ccc(CN2C3CCC2CN(c2ccc(-c4cc(-c5cnn(C(F)F)c5)cn5ncc(C#N)c45)cn2)C3)cc1` [Example 69, 6-(1-difluoromethyl-1Hpyrazol-4-yl)-4-(6-(8-(4-(methylsulfonyl)benzyl)-3,8-diazabicyclo[3.2.1]octan-3-yl)pyridin-3-yl)pyrazolo[1,5-a]pyridine-3-carbonitrile], the IC50 in data set [5] worked out at 5.47 nM; in data set [2], 63.1 nM; in data set [3], 0.716 nM.
Consider `COc1ccc(CN2CCN(c3ccc(-c4cc(N5CC(F)(F)C5)cn5ncc(C#N)c45)cn3)CC2)cn1` [Example 26, 6-(3,3-difluoroazetidin-1-yl)-4-(6-(4-((6-methoxypyridin-3-yl)methyl)piperazin-1-yl)pyridin-3-yl)pyrazolo[1,5-a]pyridine-3-carbonitrile], for which, in data set [1], the AUC(0-inf) turned out to be 45000 ng·h/mL, the Cmax stood at 6000 ng/mL, the Tmax is 1.75 h and the half-life is 4.9 h. The same compound returned an IC50 in data set [2] of 95.5 nM. This compound came in with an IC50 in data set [3] of 0.422 nM.
Turning to `CS(=O)(=O)c1ccc(CN2C3CC2CN(c2cnc(-c4cc(-c5cnn(C(F)F)c5)cn5ncc(C#N)c45)cn2)C3)cc1` [Example 70, 4-(5-(6-(4-(methylsulfonyl)benzyl)-3,6-diazabicyclo[3.1.1]heptan-3-yl)pyrazin-2-yl)-6-(1-(difluoromethyl)-1Hpyrazol-4-yl) pyrazolo[1,5-a] pyridine-3-carbonitrile], the IC50 is 2.52 nM in data set [5], 55.7 nM in data set [2] and 0.324 nM in data set [3].
